From patent US20260297042A1, “BIARYLAMIDE DERIVATIVES AND THEIR USE AS PKMYT1 INHIBITORS” (CANCER RESEARCH TECHNOLOGY LIMITED, priority 2023, published 2026)
Structures can show the parent of a compound that is named as a salt.

Tests used:
WEE1 = target: T1, WEE1 (Homo sapiens, UniProt P30291); experiment: Selectivity versus WEE1 assay (ADP-Glo enzymatic assay); assay type: biochemical; conditions: for IC50: ADP-Glo; for PKMYT1 vs. WEE1 selectivity: fold difference in selectivity for PKMYT1 over WEE1
T1 construct: purchased Thermo Fisher PR7373A
Method: Selectivity versus WEE1 assay: Selectivity was established using the same format as outlined for PKMYT1. After dosing of compounds via the Echo acoustic dispenser—as described above—WEE1 (Thermo Fisher PR7373A) was added to each well at a final concentration of 15 nM in a buffer of 50 mM HEPES (pH 7.5), 10 mM MgCl2, 1 mM EGTA, 0.01% Brij-35, 1% DMSO. 30 µM ATP was added to start the reaction with the final assay volume being 4 μl. The plate was then incubated for 60 minutes at 26° C. before the addition of 4 μl of ADP-Glo Reagent. Following a further 60 minute incubation the assay signal was developed by the addition of 8 μl ADP-Glo Detection Reagent. After 60 minutes the luminescence signal was read on a PHERAStar FS microplate reader (BMG Labtech).
Data analysis: Data was captured and analysed within the Dotmatics Studies software module where dose response curves were generated and IC50 values determined. Acceptance and verification of data followed strict in-house business rules which are summarised as follows. […] Technical and biological replicates of each compound are routinely tested and replicate IC50 values must fall within 3-fold of each other with dose response curves showing ‘goodness of fit’ r2 values >0.9. Failure to meet any of these defined criteria result in rejection of data.

Human PKMYT1 = target: T2, Human PKMYT1 (Homo sapiens, UniProt Q99640); experiment: PKMYT1 biochemical ADP-Glo enzymatic assay; conditions: ADP-Glo
T2 construct: Human PKMYT1 75-362 was cloned as a TEV cleavable 6xHis fusion; 6xHis (TEV cleavable) (cleaved yes); made in house; host or cells: bacterial cells
T2 sequence (Q99640 75-362): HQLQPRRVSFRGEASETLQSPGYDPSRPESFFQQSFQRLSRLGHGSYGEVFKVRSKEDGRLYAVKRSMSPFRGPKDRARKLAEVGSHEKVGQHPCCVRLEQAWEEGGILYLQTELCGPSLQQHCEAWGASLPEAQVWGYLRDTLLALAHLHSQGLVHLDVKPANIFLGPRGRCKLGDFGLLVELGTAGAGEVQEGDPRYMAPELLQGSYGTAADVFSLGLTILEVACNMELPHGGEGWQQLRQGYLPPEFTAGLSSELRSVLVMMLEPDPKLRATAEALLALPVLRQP
How it was run: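 Purified untagged human PKMYT1 75-362 at 15 nM final was tested in HEPES pH 7.5 with MgCl2, EGTA, Brij-35 and 1% DMSO. Intrinsic ATPase activity was measured with 500 uM ATP over 60 min at 26° C. ADP-Glo luminescence was read and IC50 fitted from 10-point, 3-fold dilution curves.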

[1] = 15 nM WEE1, 60 minutes at 26° C., banded
[2] = banded, ">N" = at least in this band but could be higher
[3] = 15 nM PKMYT1 kinase domain, 500 µM ATP, 60 minutes at 26° C., banded
[4] = PKMYT1 kinase domain 15 nM, banded values

T1 sequence (P30291 whole entry): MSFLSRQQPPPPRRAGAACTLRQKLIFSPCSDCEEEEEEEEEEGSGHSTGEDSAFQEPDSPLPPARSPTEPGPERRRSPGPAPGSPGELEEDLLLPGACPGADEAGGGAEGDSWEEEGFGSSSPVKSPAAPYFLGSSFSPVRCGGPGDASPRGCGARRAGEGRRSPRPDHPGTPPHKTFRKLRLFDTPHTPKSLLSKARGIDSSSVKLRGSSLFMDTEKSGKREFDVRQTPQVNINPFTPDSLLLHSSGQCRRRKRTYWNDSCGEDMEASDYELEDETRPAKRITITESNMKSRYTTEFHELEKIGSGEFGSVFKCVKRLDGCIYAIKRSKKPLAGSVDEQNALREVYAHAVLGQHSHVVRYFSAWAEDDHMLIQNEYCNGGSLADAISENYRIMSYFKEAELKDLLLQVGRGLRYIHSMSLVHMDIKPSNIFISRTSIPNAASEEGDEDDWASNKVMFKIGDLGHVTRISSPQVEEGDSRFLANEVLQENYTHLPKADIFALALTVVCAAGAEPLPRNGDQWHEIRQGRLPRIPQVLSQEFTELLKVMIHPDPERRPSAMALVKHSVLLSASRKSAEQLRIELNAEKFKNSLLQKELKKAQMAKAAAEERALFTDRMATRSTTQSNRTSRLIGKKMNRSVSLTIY

Compound	IC50 (WEE1; [1])	PKMYT1 vs. WEE1 selectivity (WEE1; [2])	IC50 (Human PKMYT1; [3])	IC50 (WEE1; WEE1 15 nM, banded values)	PKMYT1 vs. WEE1 selectivity (WEE1; banded)	IC50 (Human PKMYT1; [4])
Cc1ccc(O)c(C)c1NC(=O)c1cnc(Nc2ccn(CC(=O)N3CCC4(CC3)CCN(C(=O)OC(C)(C)C)C4)n2)s1 [BAA-155, tert-butyl 8-[2-[3-[5-[(3-hydroxy-2,6-dimethyl-phenyl)carbamoyl]thiazol-2-ylamino]pyrazol-1-yl]acetyl]-2,8-diazaspiro[4.5]decane-2-carboxylate]	> 11000 nM	X (100-<1000 fold)	< 50 nM	–	–	–
Cc1ccc(O)c(C)c1NC(=O)c1cnc(Nc2ccn([C@@H]3CCNC3)n2)s1 [BAA-056, N-(3-hydroxy-2,6-dimethyl-phenyl)-2-[[1-[(3R)-pyrrolidin-3-yl]pyrazol-3-yl]amino]thiazole-5-carboxamide hydrochloride]	> 11000 nM	X (100-<1000 fold)	50 to 1000 nM	–	–	–
Cc1ccc(O)c(C)c1NC(=O)c1cnc(Nc2ccn([C@@H]3CCN(C(=O)CC4CCCCC4)C3)n2)s1 [BAA-097]	> 11000 nM	>X (100-<1000 fold)	50 to 1000 nM	–	–	–
Cc1ccc(O)c(C)c1NC(=O)c1cnc(Nc2ccn(CC(=O)N3CC4(CCC4)C3)n2)s1 [BAA-199]	1000 to 11000 nM	Y (1000-5000 fold)	< 50 nM	–	–	–
Cc1cn(C(C)C(=O)N2CCN(C)CC2)nc1Nc1ncc(C(=O)Nc2c(C)ccc(O)c2C)s1 (stereo not drawn) [BAA-500, N-(3-hydroxy-2,6-dimethylphenyl)-2-((4-methyl-1-(1-(4-methylpiperazin-1-yl)-1-oxopropan-2-yl)-1H-pyrazol-3-yl)amino)thiazole-5-carboxamide]	–	–	–	> 11000 nM	X (100-<1000 fold)	< 50 nM
CC(=O)N1CCN(C(=O)Cn2ccc(Nc3ncc(C(=O)Nc4c(C)ccc(O)c4C)s3)n2)CC1 [BAA-145]	> 11000 nM	Y (1000-5000 fold)	< 50 nM	–	–	–
Cc1cn(CC(=O)N(C)CCO)nc1Nc1ncc(C(=O)Nc2c(C)ccc(O)c2C)s1 [BAA-524, N-(3-Hydroxy-2.6-dimethylphenyl)-2-((1-(2-((2-hydroxyethyl)(methyl)amino)-2-oxoethyl)-4-methyl-1H-pyrazol-3-yl)amino)thiazole-5-carboxamide]	–	–	–	> 11000 nM	Y (1000-5000 fold)	< 50 nM
Cc1ccc(O)c(C)c1NC(=O)c1cnc(Nc2ccn(CC(=O)N3C[C@@H](C)N(C(=O)OC(C)(C)C)[C@@H](C)C3)n2)s1 [BAA-156]	> 11000 nM	Y (1000-5000 fold)	< 50 nM	–	–	–
Cc1conc1Nc1ncc(C(=O)Nc2c(C)ccc(O)c2C)s1 [BAA-440, N-(3-hydroxy-2,6-dimethylphenyl)-2-((4-methylisoxazol-3-yl)amino)thiazole-5-carboxamide]	–	–	–	1000 to 11000 nM	X (100-<1000 fold)	< 50 nM
COc1cnc(Cl)nc1Nc1ncc(C(=O)Nc2c(C)ccc(O)c2C)s1 [BAA-568, 2-((2-chloro-5-methoxypyrimidin-4-yl)amino)-N-(3-hydroxy-2,6-dimethylphenyl)thiazole-5-carboxamide]	–	–	–	> 11000 nM	X (100-<1000 fold)	< 50 nM
Cc1ccc(O)c(C)c1NC(=O)c1cnc(Nc2ccn([C@@H]3CCN(CCc4ccccc4)C3)n2)s1 [BAA-115]	> 11000 nM	>X (100-<1000 fold)	50 to 1000 nM	–	–	–
Cc1ccc(O)c(C)c1NC(=O)c1cnc(Nc2ccn(CC(=O)O)n2)s1 [BAA-059, 2-[3-[[5-[(3-hydroxy-2,6-dimethyl-phenyl)carbamoyl]thiazol-2-yl]amino]pyrazol-1-yl]acetic acid]	> 11000 nM	X (100-<1000 fold)	< 50 nM	–	–	–
Cc1cn(-c2cnn(CCO)c2)nc1Nc1ncc(C(=O)Nc2c(C)ccc(O)c2C)s1 [BAA-395, N-(3-hydroxy-2,6-dimethylphenyl)-2-((1′-(2-hydroxyethyl)-4-methyl-1′H-[1,4′-bipyrazol]-3-yl)amino)thiazole-5-carboxamide]	–	–	–	1000 to 11000 nM	X (100-<1000 fold)	< 50 nM
Cc1ccc(O)c(C)c1NC(=O)c1cnc(Nc2cc(C(N)=O)n(C)n2)s1 [BAA-130, 2-[(5-Carbamoyl-1-methyl-pyrazol-3-yl)amino]-N-(3-hydroxy-2,6-dimethyl-phenyl)thiazole-5-carboxamide]	1000 to 11000 nM	X (100-<1000 fold)	< 50 nM	–	–	–
Cc1ccc(O)c(C)c1NC(=O)c1cnc(Nc2ncc(C(F)(F)F)o2)s1 [BAA-437, N-(3-hydroxy-2,6-dimethylphenyl)-2-((5-(trifluoromethyl)oxazol-2-yl)amino)thiazole-5-carboxamide]	–	–	–	> 11000 nM	W (10-<100 fold)	1000 to 11000 nM
Cc1ccc(O)c(C)c1NC(=O)c1cnc(Nc2ccn([C@@H]3CCN(C(=O)OC(C)(C)C)C3)n2)s1 [BAA-043, tert-Butyl(3R)-3-[3-[[5-[(3-hydroxy-2.6-dimethyl-phenyl)carbamoyl]thiazol-2-yl]amino]pyrazol-1-yl]pyrrolidine-1-carboxylate]	> 11000 nM	>Y (1000-5000 fold)	50 to 1000 nM	–	–	–
Cc1ccc(O)c(C)c1NC(=O)c1cnc(Nc2ccc(Nc3ccc(F)cc3)cn2)s1 [BAA-310, 2-((5-((4-fluorophenyl)amino)pyridin-2-yl)amino)-N-(3-hydroxy-2,6-dimethylphenyl)thiazole-5-carboxamide]	> 11000 nM	X (100-<1000 fold)	50 to 1000 nM	–	–	–
Cc1ccc(O)c(C)c1NC(=O)c1cnc(Nc2ccn(CC(=O)NC(C)(C)CO)n2)s1 [BAA-138, 2-[1-[2-[(2-hydroxy-1,1-dimethyl-ethyl)amino]-2-oxo-ethyl]pyrazol-3-ylJamino]-N-(3-hydroxy-2,6-dimethyl-phenyl)thiazole-5-carboxamide]	> 11000 nM	X (100-<1000 fold)	50 to 1000 nM	–	–	–
COC(=O)CCC(=O)N1CC[C@@H](n2ccc(Nc3ncc(C(=O)Nc4c(C)ccc(O)c4C)s3)n2)C1 [BAA-091]	> 11000 nM	>X (100-<1000 fold)	50 to 1000 nM	–	–	–
Cn1ccc(Nc2ncc(C(=O)Nc3c(Cl)ccc(O)c3F)s2)n1 [BAA-479, N-(6-Chloro-2-fluoro-3-hydroxyphenyl)-2-((1-methyl-1H-pyrazol-3-yl)amino)thiazole-5-carboxamide]	–	–	–	> 11000 nM	W (10-<100 fold)	50 to 1000 nM
Cc1c[nH]nc1Nc1ncc(C(=O)Nc2c(C)ccc(O)c2C)s1 [BAA-388, N-(3-hydroxy-2,6-dimethylphenyl)-2-((4-methyl-1H-pyrazol-3-yl)amino)thiazole-5-carboxamide]	1000 to 11000 nM	X (100-<1000 fold)	< 50 nM	–	–	–
Cc1ccc(O)c(C)c1NC(=O)c1cnc(Nc2n[nH]cc2Br)s1 [BAA-579, 2-((4-Bromo-1H-pyrazol-3-yl)amino)-N-(3-hydroxy-2,6-dimethylphenyl)thiazole-5-carboxamide]	–	–	–	1000 to 11000 nM	X (100-<1000 fold)	< 50 nM
COc1ccc2cc(Nc3ncc(C(=O)Nc4c(C)ccc(O)c4C)s3)nn2c1 [BAA-242, N-(3-Hydroxy-2,6-dimethylphenyl)-2-((6-methoxypyrazolo[1,5-a]pyridin-2-yl)amino)thiazole-5-carboxamide]	> 11000 nM	Y (1000-5000 fold)	50 to 1000 nM	–	–	–
Cc1ccc(O)c(C)c1NC(=O)c1cnc(Nc2cc(C)n(C(C)C(=O)N3CCN(C)CC3)n2)s1 (stereo not drawn) [BAA-511, N-(3-hydroxy-2,6-dimethylphenyl)-2-((5-methyl-1-(1-(4-methylpiperazin-1-yl)-1-oxopropan-2-yl)-1H-pyrazol-3-yl)amino)thiazole-5-carboxamide]	–	–	–	> 11000 nM	W (10-<100 fold)	50 to 1000 nM
Cc1ccc(O)c(C)c1NC(=O)c1cnc(Nc2ccc3cc(Br)ccc3n2)s1 [BAA-300, 2-((6-bromoquinolin-2-yl)amino)-N-(3-hydroxy-2,6-dimethylphenyl)thiazole-5-carboxamide]	> 11000 nM	X (100-<1000 fold)	50 to 1000 nM	–	–	–
